Measurements as given in patent publication US20240226158A9, “ADMINISTRATION OF TUMOR INFILTRATING LYMPHOCYTES WITH MEMBRANE BOUND INTERLEUKIN 15 TO TREAT CANCER” (OBSIDIAN THERAPEUTICS, INC., priority 2021, published 2024).

Tested on: IL15 signaling pathway (pSTAT5, pS6)
Test: phospho-flow cytometry assay of IL15 expression and signaling
Assay type: cell-based, human
Conditions: regulated mbIL15 TILs, 18 hours, 4 donors
Description: Pre-REP TILs were prepared similarly to the methods of Example 1-3 and 9, and unengineered and mbIL15 TIL generated accordingly as described in Examples 1-3 and 9. Engagement of the IL15 signaling pathway results in phosphorylation of signal transducers downstream, including the transcription factor protein STATS and ribosomal protein S6. […] Next, the regulated mbIL15 TILs were regulated for 18 hours in the presence of a range of concentrations of ACZ including 0.1, 1, 2.5, 5, 10, 25, 100 μM, as well as vehicle control. The regulated mbIL15 TILs were then collected for staining and FACS analysis.
Briefly, cells were stained using antibodies for CD3, CD4, CD8, IL15 and a Live/Dead marker. Then cells were fixed in 2% formaldehyde (BD Cytofix) and permeabilized using a methanol-based buffer (BD Phospho Perm III Buffer) before staining with antibodies specific for phosphorylated STATS (Biolegend) and S6 (Cell Signaling Technology). Cells were acquired on the BD Symphony and analyzed using FlowJo software.
In order to compare different strategies for IL15 expression, TILs were utilized that constitutively express mbIL15 and regulated mbIL15 TILs. Cryopreserved unengineered TILs, constitutive mbIL15 TILs, and regulated mbIL15 TILs, from three human donors were thawed and then rested in ACZ-free media for 24 hours. […] Cells were acquired on the BD Fortessa and analyzed using FlowJo software.

CC(=O)Nc1nnc(S(N)(=O)=O)s1 [ACZ, acetazolamide]
relationship between ACZ and IL15 expression and signaling (pSTAT5, pS6): dose-dependent relationship
